According to patent US11414429B2, “Compound or pharmaceutically acceptable salt thereof” (RIKEN, priority 2016, dated 2022):

Columns and labels:
[1] = test system: human colorectal cancer cell line, COLO-320DM; experiment: Cell proliferation inhibitory activity test (Celltiter-Glo Luminescent Cell Viability Assay); assay type: cell-based; details: COLO-320DM cells, 96 hours, class symbols, read-out: COLO-320 DM (cell proliferation inhibitory activity, GI50 value)
Outline: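 GI50 is taken as the concentration halving cell growth versus 1% DMSO control, measured by ATP luminescence. Compound exposure lasted 96 h at 37° C. under 5% CO2, after overnight seeding in RPMI-1640 with 10% FBS and 2 mM glutamine.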

[2] = target: T1, tankyrase 1 (TNKS 1) (Homo sapiens, UniProt O95271); experiment: Tankyrase inhibitory activity test (ELISA, self-polyADP ribosylation), tankyrase 1; assay type: biochemical; details: ELISA, self-polyADP ribosylation; class symbols; read-out: TNKS1 (inhibitory activity against tankyrase 1, IC50 value)
T1 construct: 1,024-1,327aa; made in house; host or cells: cell-free protein synthesis system
T1 sequence (O95271 1024-1327): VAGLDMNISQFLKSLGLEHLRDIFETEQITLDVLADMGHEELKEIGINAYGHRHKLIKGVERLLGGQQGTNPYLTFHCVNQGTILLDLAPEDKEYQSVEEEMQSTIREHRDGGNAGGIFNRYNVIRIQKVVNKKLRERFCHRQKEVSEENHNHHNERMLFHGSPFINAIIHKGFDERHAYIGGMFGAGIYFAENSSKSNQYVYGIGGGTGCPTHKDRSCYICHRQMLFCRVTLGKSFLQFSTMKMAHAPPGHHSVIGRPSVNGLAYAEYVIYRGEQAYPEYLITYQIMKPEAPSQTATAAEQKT
Outline: (§1)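 IC50 was fitted to residual self-polyADP-ribosylation activity, detected by HRP-streptavidin chemiluminescence. Plate-bound Flag fusions (TNKS1 1,024-1,327aa SAM+PARP; TNKS2 613-1,116aa ANK5+SAM+PARP, cell-free synthesized) saw compound for 10 min at room temperature in 50 mM Tris-HCl pH 8.0, 4 mM MgCl2, 0.2 mM DTT. Reaction with 225 μM NAD/25 μM 6-biotin-17-NAD solution ran 45 min at 30 °C.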

[3] = target: T2, tankyrase 2 (TNKS 2) (Homo sapiens, UniProt Q9H2K2); experiment: Tankyrase inhibitory activity test (ELISA, self-polyADP ribosylation), tankyrase 2; assay type: biochemical; details: ELISA, self-polyADP ribosylation; class symbols; read-out: TNKS2 (inhibitory activity against tankyrase 2, IC50 value)
T2 construct: 613-1, 116aa; made in house; host or cells: cell-free protein synthesis system
T2 sequence (Q9H2K2 613-1166): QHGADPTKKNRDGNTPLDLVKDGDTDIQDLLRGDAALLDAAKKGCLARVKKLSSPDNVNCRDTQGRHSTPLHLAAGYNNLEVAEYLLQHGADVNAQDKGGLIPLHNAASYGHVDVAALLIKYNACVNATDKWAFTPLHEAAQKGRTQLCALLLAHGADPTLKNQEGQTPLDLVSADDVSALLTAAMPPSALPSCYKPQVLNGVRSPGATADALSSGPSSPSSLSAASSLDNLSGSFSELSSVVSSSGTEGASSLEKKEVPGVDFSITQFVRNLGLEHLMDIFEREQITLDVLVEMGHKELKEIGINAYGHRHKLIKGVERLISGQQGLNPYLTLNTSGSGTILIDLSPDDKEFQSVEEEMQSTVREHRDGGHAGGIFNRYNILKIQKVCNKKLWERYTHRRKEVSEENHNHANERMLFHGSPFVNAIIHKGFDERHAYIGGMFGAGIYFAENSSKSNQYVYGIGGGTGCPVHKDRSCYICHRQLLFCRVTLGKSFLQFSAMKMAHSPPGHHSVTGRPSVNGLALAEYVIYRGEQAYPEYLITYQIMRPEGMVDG
Outline: as §1

Row | SMILES | GI50 [1] | IC50 [2] | IC50 [3]
1 | CC(=O)N1CCN(c2cc(F)c3c(c2)N(C)C(=O)C32CCN(c3nc4c(c(=O)[nH]3)CCCN4C)CC2)CC1 [Example 403, 6-(4-acetylpiperazin-1-yl)-4-fluoro-1-methyl-1′-(8-methyl-4-oxo-3,4,5,6,7,8-hexahydropy-rido[2,3-d]pyrimidin-2-yl)-spiro [indoline-3,4′-piperidin]-2(1H)-one] | 100 to 600 nM | < 20 nM | < 20 nM
2 | CN1CCCc2c1nc(N1CCC3(CC1)C(=O)N(CC(F)(F)F)c1cc(OCCN4CCCC4)cc(F)c13)[nH]c2=O [Example 404, 4-fluoro-1′-(8-methyl-4-oxo-3,4,5,6,7,8-hexa hydropyrido [2,3-d]pyrimidin-2-yl)-6-[2-(pyrroli-din-1-yl)ethoxy]-1-(2,2,2-trifluoroethyl) spiro [indoline-3,4′-piperidin]-2(1H)-one] | 600 to 1000 nM | 20 to 200 nM | 20 to 200 nM
3 | COCCN1C(=O)C2(CCN(c3nc4c(c(=O)[nH]3)CCCN4C)CC2)c2c(F)cc(OCCN(C)C)cc21 [Example 405] | 600 to 1000 nM | < 20 nM | < 20 nM
4 | CN1CCN(CCOc2cc(F)c3c(c2)N(CC(F)(F)F)C(=O)C32CCN(c3nc4c(c(=O)[nH]3)CCCN4C)CC2)CC1 [Example 406, 4-fluoro-1′-(8-methyl-4-oxo-3,4,5,6,7,8-hex-ahydropyrido[2,3-d]pyrimidin-2-yl)-6-[2-(4-methylpiperazin-1-yl)ethoxy]-1-(2,2,2-trifluoroethyl)spiro [indoline-3,4′-piperidin]-2(1H)-one] | < 100 nM | 20 to 200 nM | 20 to 200 nM
5 | COCCN1C(=O)C2(CCN(c3nc4c(c(=O)[nH]3)CCCN4C)CC2)c2c(F)cc(N3CCN(C)CC3)cc21 [Example 407, 4-fluoro-1-(2-methoxy-ethyl)-1′-(8-methyl-4-oxo-3,4,5,6,7,8-hexahydropyrido[2,3-d]pyrimidin-2-yl)-6-(4-methylpiperazin-1-yl) spiro[indoline-3,4′-piperidin]-2(1H)-one] | 100 to 600 nM | 20 to 200 nM | < 20 nM
6 | COCCN1C(=O)C2(CCN(c3nc4c(c(=O)[nH]3)CCCN4C)CC2)c2c(F)cc(OCC(=O)O)cc21 [Example 409] | 600 to 1000 nM | < 20 nM | < 20 nM
7 | COCCN1C(=O)C2(CCN(c3nc4c(c(=O)[nH]3)CCCN4C)CC2)c2c(F)cc(OCCO)cc21 [Example 410, 4-fluoro-6-(2-hydroxy-ethoxy)-1-(2-methoxyethyl)-1′-(8-methyl-4-oxo-3,4,5,6,7,8-hexahydro-pyrido[2,3-d]pyrimi-din-2-yl)spiro[indoline-3,4′-piperidin]-2(1H)-one] | 100 to 600 nM | < 20 nM | < 20 nM
8 | CN1CCCc2c1nc(N1CCC3(CC1)C(=O)N(C)c1c(OCC(=O)O)ccc(F)c13)[nH]c2=O [Example 412, 2-[4-fluoro-1′-(4-hy-droxy-8-methyl-6,7-di-hydro-5H-pyrido[2,3-d]pyrimidin-2-yl)-1-meth-yl-2-oxospiro[indole-3,4′-piperidin]-7-yl] oxyacetic acid] | 600 to 1000 nM | < 20 nM | < 20 nM
9 | CN1CCC(COc2ccc(F)c3c2N(C)C(=O)C32CCN(c3nc4c(c(=O)[nH]3)CCCN4C)CC2)CC1 [Example 413] | 600 to 1000 nM | 20 to 200 nM | < 20 nM
10 | CN1C(=O)C2(CCN(c3nc4c(c(=O)[nH]3)CCCN4)CC2)c2c(F)ccc(OCCO)c21 [Example 414, 4-fluoro-7-(2-hydroxy-ethoxy)-1′-(4-hydroxy-5,6,7,8-tetrahdyro-pyrido[2,3-d]pyrimidin-2-yl)-1-methyl-spiro [indole-3,4′-piperidin]-2-one] | 600 to 1000 nM | < 20 nM | < 20 nM
11 | CN1CCCc2c1nc(N1CCC3(CC1)C(=O)N(C)c1c(OCc4nnn[nH]4)ccc(Cl)c13)[nH]c2=O [Example 415, 4-chloro-1′-(4-hydroxy-8-methyl-6,7-dihydro-5H-pyrido[2,3-b]py-rimidin-2-yl)-1-meth-yl-7-(2H-tetrazol-5-yl-methoxy)spiro[indole-3,4′-piperidin]-2-one] | 600 to 1000 nM | < 20 nM | < 20 nM
12 | COCCN1C(=O)C2(CCN(c3nc4c(c(=O)[nH]3)CCCN4C)CC2)c2c(F)cc(N3CCNCC3)cc21 [Example 416] | 100 to 600 nM | < 20 nM | < 20 nM
13 | C[C@@H]1CN(c2cc(F)c3c(c2)N(CC(F)(F)F)C(=O)C32CCN(c3nc4c(c(=O)[nH]3)CCCN4C)CC2)C[C@H](C)N1 [Example 417, 6-(cis-3,5-dimethyl-piperazin-1-yl)-4-fluoro-1′-(8-methyl-4-oxo-3,4,5,6,7,8-hexahydropyrido[2,3-d]pyrimidin-2-yl)-1-(2,2,2-trifluoroethyl) spiro[indoline-3,4′-piperidin]-2-one] | 600 to 1000 nM | < 20 nM | < 20 nM
14 | COCCN1C(=O)C2(CCN(c3nc4c(c(=O)[nH]3)CCCN4C)CC2)c2c(F)cc(OCc3nnn[nH]3)cc21 [Example 418, 4-fluoro-1-(2-methoxyethyl)-1′-(8-methyl-4-oxo-3,4,5,6,7,8-hexahydropyrido[2,3-d]pyrimidin-2-yl)-6-[(1H-tetrazole-5-yl)methoxy]spiro[indoline-3,4′-piperidine]-2(1H)-one] | 100 to 600 nM | < 20 nM | < 20 nM
15 | CN1CCCc2c1nc(N1CCC3(CC1)C(=O)N(CC(F)(F)F)c1cc(OCc4nnn[nH]4)cc(F)c13)[nH]c2=O [Example 419, 6-[(1H-tetrazol-5-yl)methoxy]-4-fluoro-1′-(8-methyl-4-oxo-3,4,5,6,7,8-hexahydro-pyrido[2,3-d]pyrimidin-2-yl)-1-(2,2,2-trifluoro-ethyl)spiro[indoline-3,4′-piperidin]-2(1H)-one] | < 100 nM | < 20 nM | < 20 nM
16 | CN1CCC(Oc2ccc(F)c3c2N(C)C(=O)C32CCN(c3nc4c(c(=O)[nH]3)CCCN4C)CC2)CC1 [Example 420, 4-fluoro-1′-(4-hydroxy-8-methyl-6,7-dihydro-5H-pyrido[2,3-d]pyrimidin-2-yl)-1-methyl-7-(1-methylpiperidin-4-yl)oxyspiro[indole-3,4′-piperidin]-2-one] | 100 to 600 nM | < 20 nM | < 20 nM
17 | CN1CCCc2c1nc(N1CCC3(CC1)C(=O)N(C)c1c(OCC4CCNCC4)ccc(F)c13)[nH]c2=O [Example 421, 4-fluoro-1′-(4-hydroxy-8-methyl-6,7-dihydro-5H-pyrido[2,3-d]pyrimidin-2-yl)-1-meth-yl-7-(piperidin-4-yl-methoxy)spiro[indole-3,4′-piperidin]-2-one] | 100 to 600 nM | < 20 nM | < 20 nM
18 | CN1CCCc2c1nc(N1CCC3(CC1)C(=O)N(C)c1cc(N4CCC(C(=O)O)CC4)cc(F)c13)[nH]c2=O [Example 422, 1-[4-fluoro-1-methyl-1′-(8-methyl-4-oxo-3,4,5,6,7,8-hexahydro-pyrido[2,3-d]pyrimi-din-2-yl)-2-oxospiro [indoline-3,4′-piperidin]-6-yl]piperidine-4-carboxylic acid] | < 100 nM | < 20 nM | < 20 nM
19 | CN1CCCc2c1nc(N1CCC3(CC1)C(=O)N(C)c1cc(N4CC(C(=O)O)C4)cc(F)c13)[nH]c2=O [Example 423, 1-[4-fluoro-1-methyl-1′-(8-methyl-4-oxo-3,4,5,6,7,8-hexahydro-pyrido[2,3-d]pyrimi-din-2-yl)-2-oxospiro[in-doline-3,4′-piperidin]-6-yl]azetidine-3-carboxylic acid] | < 100 nM | < 20 nM | < 20 nM
20 | CN1CCCc2c1nc(N1CCC3(CC1)C(=O)N(CC(N)=O)c1cc(F)cc(F)c13)[nH]c2=O [Example 424, 2-[4,6-difluoro-1′-(8-methyl-4-oxo-3,4,5,6,7,8-hexahydropyrido [2,3-d]pyrimidin-2-yl)-2-oxospiro[indoline-3,4′-piperidin]-1(2H)-yl]acetamide] | 100 to 600 nM | < 20 nM | < 20 nM
21 | CN1CCCc2c1nc(N1CCC3(CC1)C(=O)N(C)c1c(OC4CC5CCC(C4)N5C)ccc(Cl)c13)[nH]c2=O (stereo not drawn) [Example 425, 4-chloro-1′-(4-hydroxy-8-methyl-6,7-dihydro-5H-pyrido[2,3-d]pyrimidin-2-yl)-1-methyl-7-[(8-methyl-8-azabicyclo [3.2.1]octan-3-yl)oxy] spiro[indole-3,4′-piperidin]-2-one] | 100 to 600 nM | < 20 nM | < 20 nM
22 | CN1C(=O)C2(CCN(c3nc4c(c(=O)[nH]3)CCCN4)CC2)c2c(F)ccc(OCC(C)(C)O)c21 [Example 426, 4-fluoro-7-(2-hydroxy-2-methylpropoxy)-1′-(4-hydroxy-5,6,7,8-tetrahydropyrido[2,3-d]pyrimidin-2-yl)-1-methyl-spiro[indole-3,4′-piperidin]-2-one] | 100 to 600 nM | < 20 nM | < 20 nM
